Laboratory results as given in PMC2361671, “Preclinical pharmacokinetics and metabolism of a novel prototype DNA-PK inhibitor NU7026” (British Journal of Cancer, 2005).
Where two headings read alike, the source gives them in different places. Values belong to the compound of their own block, whether it stands above or below them.

Tests used:
[1] = Urinary excretion / metabolite profile in 24 h mouse urine; type: in vivo, Female BALB/c mice; details: mice, NU7026 5 mg kg^−1 i.v., LC/MS ion current
Experimental: (§1) NU7026 was formulated in 10% DMSO and 5% Tween 20 in saline for i.p. and perorally (p.o.) administration at 20 and 50 mg kg^−1, respectively. For i.v. dosing at 5 mg kg^−1, NU7026 was formulated in 10% ethanol, 25% PEG 200 and 5% Tween 20 in saline. Control animals received the vehicle alone. Groups of three mice were injected per time point. Blood was collected by cardiac puncture following transient anaesthesia with halothane at 0.083, 0.25, 0.5, 1, 2, 4, 6, and 24 h post administration. Following centrifugation at 1500 g for 2 min to obtain plasma, samples were stored at −20°C until analysis. For urinary excretion studies, NU7026 was administered at 5 mg kg^−1 i.v. Urine was collected over 24 h in metabolic cages, and stored at −20°C until required.
For metabolism studies, LC/MS and LC/MS/MS were carried out on an LCQ ion trap instrument (ThermoFinnigan, UK). Separation was achieved using the same column as above. A linear gradient of 90% formic acid (0.1%) : 10% MeOH to 10% formic acid (0.1%) : 90% MeOH was run at 1 ml min^−1 from 0.5 to 6.5 min followed by 3.5 min isocratic. The capillary temperature was set to 200°C and the scan range from m/z 50 to m/z 850. For confirmation of metabolite structures, metabolites were spiked in control matrix and MS/MS fragmentation patterns and retention times were compared to those of biological samples.

[2] = tested on: CH1 human ovarian carcinoma cells; assay: Clonogenic survival assay / radiosensitisation; type: cell-based; details: for cell count, % of the radiation control group: P<0.01
Experimental: These experiments were not designed as classical radiosensitisation experiments, that is, radiation dose finding study, but rather as experiments to investigate the minimum drug exposure required to observe radiosensitisation. CH1 human ovarian carcinoma cells were chosen as as a model because of their relative radiosensitivity (Kelland, personnal communication). They were grown as monolayers in Dubelcco's modified Eagle's medium (Invitrogen, Paisley, Scotland) augmented with 10% heat-inactivated fetal calf serum, 2 mM L-glutamine, minimal essential medium nonessential amino acid (Invitrogen) and 0.5 μg ml^−1 hydrocortisone in a 6.5% CO2/93.5% air atmosphere.
Cells were seeded at 1000 per 10 ml into […] flasks and left to attach overnight. Each group consisted of triplicate flasks. Following the addition of NU7026 (10 μM) or dimethyl sulphoxide (DMSO) solvent control for 24 h (final concentration of DMSO was 0.5%), cells were irradiated with a cobalt source (^60Co) for 3 min and 9 s at a distance of 40 cm to give a total dose of 2 Gy, or 2 min and 49 s at a distance of 30 cm to give a final dose of 3 Gy, or 6 min and 18 s at a distance of 40 cm to give a total dose of 4 Gy. Control cells were not treated with either drug or ionising radiation. Group 2 cells were treated with NU7026 only and Group 3 cells were irradiated only. Groups 4–7 were treated with NU7026 and irradiated with 2, 3 or 4 Gy. The drug was washed off by aspiration of the medium and rinsing with 10 mM phosphate-buffered saline (PBS) 2 h (Group 4), 4 h (Group 5), 6 h (Group 6) and 24 h (Group 7) after exposure. Following the addition of drug-free medium, cells were left to grow until colonies were visible. Colonies were then counted after 9 days and expressed as a percentage of controls. The doubling time of the cells was approximately 16 h.

[3] = Plasma pharmacokinetics in mice (LC/MS/MS); type: in vivo, Female BALB/c mice
Experimental: as §1
Samples were analysed by liquid chromatography tandem mass spectrometry (LC/MS/MS). Chromatography was performed using a 50 × 4.6 mm ID 5 μm zwitterionic ABZ+ column (Supelco, Poole, Dorset, UK) and a gradient of 20% methanol (MeOH) in formic acid (0.1%) to 100% MeOH over 3 min, followed by an isocratic period at a flow rate of 0.6 ml min^−1. The total run time was 7 min. Detection by multiple reaction monitoring was performed on a TSQ700 triple quadrupole mass spectrometer equipped with an electrospray source and operated in positive ion mode (Thermoquest Ltd, Hemel Hempstead, Herts, UK). The heated capillary was maintained at 280°C and at a voltage of 4.5 kV. The following transitions were monitored: m/z (mass to charge ratio) 282.4 → m/z 171 for NU7026; m/z 262.3 → m/z 121 for NU7031; m/z 300 → m/z 256 for NU7119; m/z 300 → m/z 238 for NU7200. Calibration standards (20, 200, 500, 1000, 2000, 5000, 10 000, 20 000 and 50 000 nM) were prepared in blank mouse plasma. Following the addition of internal standard (30 μl of 2 μM solution of NU7031), plasma proteins were precipitated with 300 μl MeOH. Samples were then centrifuged and 20 μl of supernatant was injected onto the column. Peak area was plotted against concentration and unknown concentrations derived from the linear plot (analysed with Prism 2.01, Graphpad Software, San Diego, CA, USA).
Pharmacokinetic parameters were evaluated by noncompartmental analysis (model 200 for p.o. and i.p. administration and 201 for i.v. administration) using WinNonlin® Professional Version 3.2 (Pharsight Corporation, Mountain View, CA, USA). For simulation studies, parameters were derived from compartmental analysis.

[4] = Solubility (for constant infusion with osmotic minipumps); type: physicochemical; details: for dosing by constant infusion with osmotic minipumps
[5] = molecular target: phosphoinositide 3-kinase; parameters: method as in Veuger et al, 2003, 2004; Griffin et al 2005; details: ref Veuger et al, 2003, 2004; Griffin et al 2005; cited from earlier work
[6] = molecular target: ataxia telangiectasia mutated kinase (ATM); parameters: method as in Veuger et al, 2003, 2004; Griffin et al 2005; details: ref Veuger et al, 2003, 2004; Griffin et al 2005; cited from earlier work
[7] = tested on: ataxia telangiectasia and rad 3-related kinases (ATR); parameters: method as in Veuger et al, 2003, 2004; Griffin et al 2005; details: ref Veuger et al, 2003, 2004; Griffin et al 2005; cited from earlier work
DNA-PK = DNA-PK (Homo sapiens, UniProt P78527); assay: DNA-PK inhibition; type: biochemical; details: stated in results, no method or reference given; read-out: IC50 inhibiting DNA-PK
[8] = Table 2: parent and metabolites in plasma after NU7026 at 5 mg kg^−1 i.v. to mice
[9] = Table 3: each compound at 20 mg kg^−1 i.p. to mice, plasma
[10] = female, BALB/c, mouse, plasma, ip, 20 mg/kg, Table 3: each compound at 20 mg kg^−1 i.p. to mice, plasma

Compound: O=c1cc(N2CCOCC2)oc2c1ccc1ccccc12 [NU7026, 2-(morpholin-4-yl)-benzo[H]chromen-4-one]
- cell survival, % of the solvent-treated group ([2]; 10 μM NU7026 combined with 2 Gy radiation): 15%
- cell survival, % of the solvent-treated group ([2]; 10 μM NU7026 combined with 3 Gy radiation): 9%
- cell survival, % of the solvent-treated group ([2]; 10 μM NU7026 combined with 4 Gy radiation): 1%
- radiosensitisation vs radiation alone ([2]; 2 h treatment with 10 μM NU7026 + 3 Gy, t test P>0.1): no significant difference
- cell count, % of the radiation control group ([2]; 4 h exposure to 10 μM NU7026 + 3 Gy): 61%
- cell count, % of the radiation control group ([2]; 6 h exposure to 10 μM NU7026 + 3 Gy): 47%
- cell count, % of the radiation control group ([2]; 24 h exposure to 10 μM NU7026 + 3 Gy): 13%
- activity at 10 µM ([2]; Homo sapiens, Ovarian carcinoma cell, NU7026 alone, 10 μM for 24 h, no radiation, read-out: surviving fraction, % of control cells): 91 ± 13%
- AUC last [3, 8]: 3616 nmol·L/h
- Cl obs. [3, 9]: 0.44 L/h
- Vd [3, 9]: 0.55 L
- t1/2 [3, 9]: 52.2 min
- half-life ([3]; female, BALB/c, mouse, ip, mice, 20 mg kg^−1 i.p., plasma): 52.2 min
- Tmax ([3]; female, BALB/c, mouse, ip, mice, 20 mg kg^−1 i.p., plasma, read-out: Tmax): 4.98 min
- half-life ([3]; female, BALB/c, mouse, iv, mice, 5 mg kg^−1 i.v., plasma): 73.2 min
- Tmax ([3]; female, BALB/c, mouse, iv, mice, 5 mg kg^−1 i.v., plasma, read-out: Tmax): 0 min
- bioavailability ([3]; female, BALB/c, mouse, plasma, intraperitoneal, mice, i.p. 20 mg kg^−1, assuming linear i.v. pharmacokinetics): 20%
- Cmax [3, 10]: 5.12 µM
- Cmax ([3]; female, BALB/c, mouse, plasma, ip, 20 mg/kg, mice, 20 mg kg^−1 i.p., noncompartmental): 7.36 µM
- Cmax ([3]; female, BALB/c, mouse, plasma, iv, 5 mg/kg, mice, 5 mg kg^−1 i.v., noncompartmental): 5.12 µM
- clearance ([3]; female, BALB/c, mouse, plasma, iv, 5 mg/kg, mice, 5 mg kg^−1 i.v., plasma, read-out: Cl obs. (converted)): 1.5 mL/min
- clearance ([3]; female, BALB/c, mouse, plasma, iv, 5 mg/kg, mice, 5 mg kg^−1 intravenous (abstract), read-out: plasma clearance (converted)): 1.8 mL/min
- Vd ([3]; female, BALB/c, mouse, plasma, iv, mice, 5 mg kg^−1 i.v., based on the elimination phase, read-out: Vd): 0.16 L
- Cmax ([3]; female, BALB/c, mouse, plasma, po, 50 mg/kg, mice, 50 mg kg^−1 p.o., noncompartmental): 2.23 µM
- Cmax ([3]; female, BALB/c, mouse, plasma, po, 50 mg/kg, mice, p.o. 50 mg kg^−1 (discussion)): < 2.5 µM
- half-life ([3]; female, BALB/c, mouse, po, mice, 50 mg kg^−1 p.o., plasma): 88.8 min
- Tmax ([3]; female, BALB/c, mouse, mice, oral 50 mg kg^−1, plasma, read-out: time of maximum concentration after administration): 60 min
- AUC last ([3]; mice, 5 mg kg^−1 i.v., plasma): 3616 nM l h^−1
- Vd ([3]; mice, 20 mg kg^−1 i.p., based on the elimination phase): 0.55 L
- AUC last ([3]; mice, 20 mg kg^−1 i.p., plasma): 2940 nM l h^−1
- Cl obs. ([3]; mice, 20 mg kg^−1 i.p., plasma): 0.44 L/h
- Vd ([3]; mice, 50 mg kg^−1 p.o., based on the elimination phase): 1.34 L
- AUC last ([3]; mice, 50 mg kg^−1 p.o., plasma): 5191 nM l h^−1
- Cl obs. ([3]; mice, 50 mg kg^−1 p.o., plasma): 0.63 L/h
- plasma level at 4 h post administration ([3]; mice, i.v. 5 mg kg^−1): undetectable
- time compound levels were above 10 μM ([3]; mice, i.v. administration, plasma): less than 1 h
- maximum concentration ([3]; mice, oral 50 mg kg^−1, plasma): 2.2 µM
- oral bioavailability ([3]; mice, p.o. 50 mg kg^−1 (abstract prints 20 mg kg^−1), based on linear i.v. pharmacokinetics): 15%
- solubility [4]: insufficient solubility
- IC50 [5]: 13 µM
- IC50 [6]: > 100 µM
- IC50 [7]: > 100 µM

Compound: C[C@@H]1CN(c2cc(=O)n3ccc4ccccc4c3n2)C[C@H](C)O1 [NU7107, 2-((2S,6R)-2,6-dimethylmorpholin-4-yl)-pyrimido[2,1-a]isoquinolin-4-one]
- IC50 (DNA-PK): > 10 µM
- AUC last [3, 9]: 12165 nmol·L/h
- Cl obs. [3, 9]: 0.11 L/h
- Vd [3, 9]: 0.12 L
- half-life ([3]; female, BALB/c, mouse, ip, Table 3: each compound at 20 mg kg^−1 i.p. to mice, plasma): 47.4 min
- Tmax ([3]; female, BALB/c, mouse, ip, Table 3: each compound at 20 mg kg^−1 i.p. to mice, plasma, read-out: Tmax): 15 min
- Cmax [3, 10]: 10.4 µM
- decrease in plasma clearance compared with NU7026 ([3]; mice, 20 mg kg^−1 i.p.): four-fold
- plasma level 6 h post administration ([3]; mice, 20 mg kg^−1 i.p.): still detectable

The remaining lines, values ahead:

- level in 24 h urine samples [1]: significant amounts
Compound: O=c1cc(N2CCOC(O)C2)oc2c1ccc1ccccc12 (centres unmarked) [M1]

- AUC last [3, 8]: 414 nmol·L/h
- level in 24 h urine samples [1]: significant amounts
Compound: O=c1cc(N(CCO)CCO)oc2c1ccc1ccccc12 [NU7199, 2-[bis-(2-hydroxyethyl)-amino]-benzo[H]chromen-4-one]

- AUC last [3, 8]: 143 nmol·L/h
- level in 24 h urine samples [1]: significant amounts
Compound: O=c1cc(NCCOCCO)oc2c1ccc1ccccc12 [NU7200, 2-[2-(2-hydroxyethoxy)-ethylamino]-benzo[H]chromen-4-one]
